Measured values from ChEMBL document CHEMBL3046007, “Isonicotinic acid hydrazide derivatives: synthesis, antimicrobial activity, and QSAR studies” (Med Chem Res, 2012).
Converted amounts (≈) assume the structure as drawn.

Tests used:
[1] = system: Bacillus subtilis; test: Antimicrobial activity against Bacillus subtilis after 24 hr by serial dilution method; format: functional
[2] = system: Vesicular stomatitis virus; test: Antiviral activity against Vesicular stomatitis virus infected human HeLa cells assessed as inhibition of virus-induced cytopathicity; format: functional, organism-based
[3] = system: Human alphaherpesvirus 1; test: Antiviral activity against TK(-) aciclovir-resistant Human herpesvirus 1 strain KOS infected in human HEL cells assessed as inhibition of virus-induced cytopathicity; format: functional, organism-based; settings: Human alphaherpesvirus 1, KOS
[4] = system: Sindbis virus; test: Antiviral activity against Sindbis virus infected Vero cells assessed as inhibition of virus-induced cytopathicity; format: functional, organism-based
[5] = Cytotoxicity against Chlorocebus aethiops (African green monkey) Vero cells assessed as alteration in cell morphology; format: cell-based; settings: chlorocebus sabaeus
[6] = Cytotoxicity against Homo sapiens (human) HeLa cells; format: cell-based
[7] = system: Human alphaherpesvirus 1; test: Antiviral activity against Human herpesvirus 1 strain KOS infected in human HEL cells assessed as inhibition of virus-induced cytopathicity; format: functional, organism-based; settings: Human alphaherpesvirus 1, KOS
[8] = system: Respiratory syncytial virus; test: Antiviral activity against Respiratory syncytial virus infected human HeLa cells assessed as inhibition of virus-induced cytopathicity; format: functional, organism-based
[9] = system: Aspergillus niger; test: Antimicrobial activity against Aspergillus niger after 7 days by serial dilution method; format: functional
[10] = system: Candida albicans; test: Antimicrobial activity against Candida albicans after 48 hr by serial dilution method; format: functional
[11] = Cytotoxicity against Homo sapiens (human) MT4 cells; format: cell-based
[12] = system: Mammalian orthoreovirus 1; test: Antiviral activity against Mammalian orthoreovirus 1 infected Vero cells assessed as inhibition of virus-induced cytopathicity; format: functional, organism-based; settings: Mammalian orthoreovirus 1, Vero
[13] = system: Coxsackievirus B4; test: Antiviral activity against Human coxsackievirus B4 infected human HeLa cells assessed as inhibition of virus-induced cytopathicity; format: functional, organism-based; settings: Enterovirus B
[14] = system: Punta Toro virus; test: Antiviral activity against Punta Toro virus infected Vero cells assessed as inhibition of virus-induced cytopathicity; format: functional, organism-based
[15] = system: Escherichia coli; test: Antimicrobial activity against Escherichia coli after 24 hr by serial dilution method; format: functional
[16] = system: Human alphaherpesvirus 2; test: Antiviral activity against Human herpesvirus 2 strain G infected human HEL cells assessed as inhibition of virus-induced cytopathicity; format: functional, organism-based; settings: Human alphaherpesvirus 2, strain G
[17] = system: Human immunodeficiency virus 1; test: Antiviral activity against Human immunodeficiency virus 1 IIIB infected human MT4 cells assessed as inhibition of virus-induced cytopathicity; format: functional, organism-based
[18] = system: Human immunodeficiency virus 2; test: Antiviral activity against Human immunodeficiency virus type 2 (ISOLATE ROD) infected human MT4 cells assessed as inhibition of virus-induced cytopathicity; format: functional, organism-based; settings: Human immunodeficiency virus 2, ISOLATE ROD
[19] = system: Human respirovirus 3; test: Antiviral activity against Human parainfluenza virus 3 infected Vero cells assessed as inhibition of virus-induced cytopathicity; format: functional, organism-based; settings: Human respirovirus 3, Vero
[20] = system: Vaccinia virus; test: Antiviral activity against Vaccinia virus infected human HEL cells assessed as inhibition of virus-induced cytopathicity; format: functional, organism-based; settings: Orthopoxvirus vaccinia
[21] = system: Staphylococcus aureus; test: Antimicrobial activity against Staphylococcus aureus after 24 hr by serial dilution method; format: functional
[22] = system: Coxsackievirus B4; test: Antiviral activity against Human coxsackievirus B4 infected Vero cells assessed as inhibition of virus-induced cytopathicity; format: functional, organism-based; settings: Enterovirus B
[23] = Cytotoxicity against Homo sapiens (human) HEL cells; format: cell-based

Row | Structure (SMILES) | -logMIC [1] | EC50 [2] [µg/mL] | EC50 [3] [µg/mL] | EC50 [4] [µg/mL] | MCC [5] [µg/mL] | MCC [6] [µg/mL] | EC50 [7] [µg/mL] | EC50 [8] [µg/mL] | -logMIC [9] | -logMIC [10] | CC50 [11] [µg/mL] | EC50 [12] [µg/mL] | EC50 [13] [µg/mL] | EC50 [14] [µg/mL] | -logMIC [15] | EC50 [16] [µg/mL] | EC50 [17] [µg/mL] | EC50 [18] [µg/mL] | EC50 [19] [µg/mL] | -logMIC [21] | further results
1 | COc1cccc(OC)c1/C=N/N(C(=O)c1ccccc1)C(=O)c1ccncc1 | 2.49 | > 4 | > 100 | > 20 | 100 | 20 | > 100 | > 4 | 2.49 | 3.1 | 12 (≈ 30.8 µM) | > 20 | > 4 | > 20 | 2.49 | > 100 | > 12 | > 12 | > 20 | 2.49 | EC50 [20]: > 100 µg/mL; EC50 [22]: > 20 µg/mL; MCC [23]: > 100 µg/mL
2 | Cc1ccc(/C=N/N(C(=O)c2ccccc2)C(=O)c2ccncc2)cc1 | 2.14 | > 20 | > 100 | > 20 | ≥ 20 | 100 | > 100 | > 20 | 2.44 | 2.74 | 42 (≈ 122 µM) | > 20 | > 20 | > 20 | 2.44 | > 100 | > 42 | > 42 | > 20 | 2.44 | EC50 [20]: > 100 µg/mL; EC50 [22]: > 20 µg/mL; MCC [23]: > 100 µg/mL
3 | O=C(c1ccccc1)N(/N=C/c1ccccc1O)C(=O)c1ccncc1 | 2.44 | – | – | – | – | – | – | – | 2.44 | 3.04 | – | – | – | – | 2.44 | – | – | – | – | 1.84 | –
4 | O=C(NNC(=O)c1cc([N+](=O)[O-])ccc1Cl)c1ccncc1 | 2.11 | – | – | – | – | – | – | – | 2.41 | 2.41 | 116 (≈ 361 µM) | – | – | – | 2.11 | – | > 116 | > 116 | – | 2.11 | –
5 | O=C(NNC(=O)c1ccc(Cl)cc1)c1ccncc1 | 2.34 | – | – | – | – | – | – | – | 1.74 | 2.64 | > 120 | – | – | – | 1.74 | – | > 120 | > 120 | – | 2.34 | –
6 | CC(Cl)C(=O)NNC(=O)c1ccncc1 (stereo not given) | 1.96 | – | – | – | – | – | – | – | 2.26 | 2.26 | 77.5 (≈ 340 µM) | – | – | – | 2.26 | – | > 77.5 | > 77.5 | – | 2.26 | –
7 | COc1cc(/C=N/NC(=O)c2ccncc2)cc(OC)c1OC | 2.4 | > 100 | > 100 | > 100 | > 100 | ≥ 100 | > 100 | > 100 | 2.4 | 2.4 | 110 (≈ 349 µM) | > 100 | > 100 | > 100 | 2.1 | > 100 | > 110 | > 110 | > 100 | 2.1 | EC50 [20]: > 100 µg/mL; EC50 [22]: > 100 µg/mL; MCC [23]: > 100 µg/mL
8 | CSc1ccc(/C=N/NC(=O)c2ccncc2)cc1 | 2.04 | > 20 | > 100 | > 100 | ≥ 100 | 100 | > 100 | > 20 | 2.34 | 2.34 | 59 (≈ 217 µM) | > 100 | > 20 | > 100 | 2.34 | > 100 | > 59 | > 59 | > 100 | 2.04 | EC50 [20]: > 100 µg/mL; EC50 [22]: 9 µg/mL (≈ 33.2 µM); MCC [23]: > 100 µg/mL
9 | O=C(N/N=C/c1c[nH]c2ccccc12)c1ccncc1 | 2.02 | > 100 | > 100 | > 100 | > 100 | ≥ 100 | > 100 | > 100 | 2.32 | 2.63 | 95 (≈ 359 µM) | 2.4 (≈ 9.08 µM) | > 100 | > 100 | 2.02 | > 100 | > 95 | > 95 | > 100 | 2.02 | EC50 [20]: > 100 µg/mL; EC50 [22]: 45 µg/mL (≈ 170 µM); MCC [23]: > 100 µg/mL
10 | COc1cc(/C=N/N(C(=O)c2ccccc2)C(=O)c2ccncc2)ccc1O | 2.18 | > 20 | > 100 | > 100 | ≥ 100 | 100 | > 100 | > 20 | 2.48 | 3.08 | 105 (≈ 280 µM) | > 100 | > 20 | > 100 | 2.48 | > 100 | > 105 | > 105 | > 100 | 2.48 | EC50 [20]: > 100 µg/mL; EC50 [22]: > 100 µg/mL; MCC [23]: > 100 µg/mL
11 | CCOc1cc(/C=N/N(C(=O)c2ccccc2)C(=O)c2ccncc2)ccc1O | 2.19 | > 100 | > 100 | > 100 | > 100 | > 100 | > 100 | > 100 | 2.19 | 2.79 | ≥ 92 | > 100 | > 100 | > 100 | 2.49 | > 100 | > 92 | > 92 | > 100 | 2.19 | EC50 [20]: > 100 µg/mL; EC50 [22]: > 100 µg/mL; MCC [23]: > 100 µg/mL
12 | CSc1ccc(/C=N/N(C(=O)c2ccccc2)C(=O)c2ccncc2)cc1 | 2.18 | > 100 | > 100 | > 100 | ≥ 100 | > 100 | > 100 | > 100 | 2.48 | 2.78 | 69 (≈ 184 µM) | > 100 | > 100 | > 100 | 2.48 | > 100 | > 69 | > 69 | > 100 | 2.18 | EC50 [20]: > 100 µg/mL; EC50 [22]: 9 µg/mL (≈ 24 µM); MCC [23]: > 100 µg/mL
13 | O=C(N/N=C/c1c(O)ccc2ccccc12)c1ccncc1 | 2.07 | > 0.04 | 0.4 (≈ 1.37 µM) | > 0.8 | ≥ 0.8 | 0.2 | 0.06 (≈ 0.206 µM) | > 0.04 | 2.37 | 2.37 | 0.1 (≈ 0.343 µM) | > 0.8 | > 0.04 | > 0.8 | 2.07 | 0.4 (≈ 1.37 µM) | > 0.1 | > 0.1 | > 0.8 | 2.07 | EC50 [20]: 0.14 µg/mL (≈ 0.481 µM); EC50 [22]: > 0.8 µg/mL; MCC [23]: ≥ 20 µg/mL
14 | C/C=C/C=N/NC(=O)c1ccncc1 | 1.88 | > 20 | > 20 | > 20 | 100 | 100 | > 20 | > 20 | 2.18 | 2.48 | 11 (≈ 58.1 µM) | > 20 | > 20 | > 20 | 1.88 | > 20 | > 11 | > 11 | > 20 | 1.88 | EC50 [20]: > 20 µg/mL; EC50 [22]: > 20 µg/mL; MCC [23]: 100 µg/mL
15 | OC(Cn1cncn1)(Cn1cncn1)c1ccc(F)cc1F [FLUCONAZOLE] | – | – | – | – | – | – | – | – | 2.64 | 2.64 | – | – | – | – | – | – | – | – | – | – | –
16 | NNC(=O)c1ccncc1 [ISONIAZID] | 1.74 | – | – | – | – | – | – | – | 2.04 | 2.34 | – | – | – | – | 1.74 | – | – | – | – | 2.04 | –
17 | Cc1ccnc2c1NC(=O)c1cccnc1N2C1CC1 [NEVIRAPINE] | – | – | – | – | – | – | – | – | – | – | > 4 | – | – | – | – | – | – | > 4 | – | – | –
18 | CCn1cc(C(=O)O)c(=O)c2cc(F)c(N3CCNCC3)cc21 [NORFLOXACIN] | 2.61 | – | – | – | – | – | – | – | – | – | – | – | – | – | 2.61 | – | – | – | – | 2.61 | –
19 | O=C(N/N=C/c1ccccc1O)c1ccncc1 [SALINAZID] | 1.98 | – | – | – | – | – | – | – | 2.29 | 2.29 | 2.52 (≈ 10.4 µM) | – | – | – | 2.29 | – | > 2.52 | > 2.52 | – | 1.98 | –
20 | Cc1cn([C@H]2C[C@H](N=[N+]=[N-])[C@@H](CO)O2)c(=O)[nH]c1=O [ZIDOVUDINE] | – | – | – | – | – | – | – | – | – | – | > 25 | – | – | – | – | – | – | – | – | – | –
